These results are taken from publication PMC9747527 (Biochemistry and Biophysics Reports, 2022).

The structures appear in SMILES notation. Values joined by “and” are separate entries in the source; they are usually repeats but may differ in a detail not shown here. Identical values can stand only once.

The nature of series [1]: Biodistribution of DRV administered via intravenous. It is filed as in vivo. The conditions noted are these: Balb/c mice; for DRV accumulation cumulatively in the brain / DRV uptake cumulative in liver / DRV uptake cumulative in plasma / DRV accumulation cumulatively for all time points in plasma / DRV accumulation cumulatively for all time points in the brain / DRV concentration in liver (cumulative): cumulative 1, 3, 6, 12 h, mean ± S.E.M.; for concentration at 1 h: both, Balb/c, mouse, brain, other: intranasal (IN), DRV concentration in brain (Mean).

The conditions of series [2]: cited from earlier work.

As to `CC(C)CN(C[C@@H](O)[C@H](Cc1ccccc1)NC(=O)O[C@H]1CO[C@H]2OCC[C@H]21)S(=O)(=O)c1ccc(N)cc1` [DRV, Darunavir], the “Increase of DRV accumulation in the brain, IN compared to IV delivery” value in series [1] (2.5 mg/kg, 1 h, p ≤ 0.05) is on record as ~3 fold; in series [1] (2.5 mg/kg, 3 h, p ≤ 0.05) it was ~2 fold; in series [1] (25 mg/kg, 1 h, p ≤ 0.001) it was ~2 fold. Also, the “DRV accumulation cumulatively in the brain” value in series [1] (2.5 mg/kg, IN) is 12.08 ± 2.91 ng/g and ~12 ng/g; in series [1] (2.5 mg/kg, IV) it was 6.91 ± 1.69 ng/g. Besides, the “DRV uptake cumulative in liver” value is on record as 29.27 ± 4.17 ng/g in series [1] (2.5 mg/kg, IN) and 118.39 ± 28.13 ng/g in series [1] (2.5 mg/kg, IV). Also, the “DRV uptake cumulative in plasma” value in series [1] (2.5 mg/kg, IN) amounted to 19.91 ± 12.65 ng/g; in series [1] (2.5 mg/kg, IV) it was 81.37 ± 22.04 ng/g. Besides, the “Lung DRV concentration, IN compared to IV” value in series [1] (2.5 mg/kg, individual or cumulative time points) was “did not significantly increase”. The “DRV accumulation cumulatively for all time points in plasma” value in series [1] (25 mg/kg, IN) was 320.56 ± 40.04 ng/g; in series [1] (25 mg/kg, IV), 899.12 ± 136.93 ng/g. The “DRV accumulation cumulatively for all time points in the brain” value in series [1] (25 mg/kg, IN) is 19.74 ± 1.80 ng/g and ~20 ng/g; in series [1] (25 mg/kg, IV) it was 12.84 ± 2.88 ng/g. Also, the “DRV concentration in liver (cumulative)” value turned out to be 833.83 ± 242.4 ng/g in series [1] (25 mg/kg, IN) and 1085.18 ± 255.0 ng/g in series [1] (25 mg/kg, IV). The concentration at 1 h in series [1] (2.5 mg/kg, 2.5 mg/kg, IN, 1 h) is ~5 ng/g; in series [1] (25 mg/kg, 25 mg/kg, IN, 1 h), ~12 ng/g.
Consider `CN(C)CCCN=C(N)c1ccc(C(N)=NCCCN(C)C)cc1` [DB213], for which the “Brain to plasma ratio, IN compared to IV administration” value in series [2] is “significantly high tissue distribution in the brain to plasma ratio”.
